Test results as given in patent US20260234135A1, “CRYSTALLINE FORMS OR SALTS OF A DEUTERATED COMPOUND” (ALEBUND PHARMACEUTICALS (HONG KONG) LIMITED, priority 2023, published 2026).
≈ marks a conversion by molar mass, not a printed value. Read-outs that look alike come from different tables or passages of the source.

Key:
[1] = Hygroscopicity evaluation by DVS at 25° C.; assay type: physicochemical
Protocol: DVS was measured via a SMS (Surface Measurement Systems) DVS Intrinsic. The relative humidity at 25° C. were calibrated against deliquescence point of LiCl, Mg(NO3)2 and KCl.

[2] = for HPLC Purity (area %), main peak RRT 1.00 / HPLC Reults of initial (%): listed as Free acid Form B
physchem = conditions: thermodynamic from solid
[3] = Approximate solubility in single solvents at RT; assay type: physicochemical
Protocol: Approximately 2 mg of sample was added into a 3-mL glass vial. Corresponding solvents were added stepwise (50 μL→50 μL→100 μL→200 μL→600 μL→1000 μL) into the vials until the solids were dissolved visually or a total volume of 2 mL was reached. The ranges of approximate solubility were calculated according to the mass of sample, volume of solvent and observation. Result summarized in Table 3 was used to guide the solvent selection in polymorph screening.

[4] = SGF, 37 °C, simulated gastric fluid
[5] = pH 4.5 (KAc) buffer, 37 °C, pH 4.5, aqueous buffer
[6] = pH 6.8 buffer (K2HPO3 + KH2PO3), 37 °C, pH 6.8, aqueous buffer
[7] = pH 8.0 buffer (K2HPO3 + KH2PO3), 37 °C, pH 8, aqueous buffer

In the case of `[2H]C([2H])(Cc1nc(-c2ccccc2)oc1C)Oc1ccc(C[C@H](OC)C(=O)O)c2sccc12` [free acid Form B], the Hygroscopicity ([1]; DVS, 25° C.) is reported as “non-hygroscopic”, the “Water uptake up to 80% RH” value ([1]; DVS, 25° C.) is reported as 0.07% and the “Form change after DVS test” value ([1]; XRPD after DVS) is reported as “No form change”. For the same compound, the “Area (%) peak 1, RRT 0.88” value ([2]; 40° C./75% RH, 2 weeks) was 0.20%, the “Area (%) peak 2, RRT 1.00 (main peak)” value ([2]; 40° C./75% RH, 2 weeks) was 99.50% and the “Area (%) peak 3, RRT 1.14” value ([2]; 40° C./75% RH, 2 weeks) was 0.11%. The “Area (%) peak 4, RRT 1.34” value ([2]; 40° C./75% RH, 2 weeks) was 0.20%, the “Area (%) peak 1, RRT 0.88” value ([2]; 40° C./75% RH, 4 weeks) was 0.23% and the “Area (%) peak 2, RRT 1.00 (main peak)” value ([2]; 40° C./75% RH, 4 weeks) was 99.47%. The “Area (%) peak 3, RRT 1.14” value ([2]; 40° C./75% RH, 4 weeks) was 0.11%, the “Area (%) peak 4, RRT 1.34” value ([2]; 40° C./75% RH, 4 weeks) was 0.19% and the “Area (%) peak 1, RRT 0.88” value ([2]; 40° C./75% RH, 8 weeks) was 0.20%. The “Area (%) peak 2, RRT 1.00 (main peak)” value ([2]; 40° C./75% RH, 8 weeks) was 99.52%, the “Area (%) peak 3, RRT 1.14” value ([2]; 40° C./75% RH, 8 weeks) was 0.09% and the “Area (%) peak 4, RRT 1.34” value ([2]; 40° C./75% RH, 8 weeks) was 0.19%. The “HPLC Purity (area %), main peak RRT 1.00” value ([2]; 40° C./75% RH/open, 2 weeks) was 99.50 area %, the “HPLC Purity (area %), main peak RRT 1.00” value ([2]; 40° C./75% RH/open, 4 weeks) was 99.47 area % and the “HPLC Reults of initial (%)” value ([2]; 40° C./75% RH/open, 4 weeks) was 100.00%. For the same compound, the “HPLC Purity (area %), main peak RRT 1.00” value ([2]; 40° C./75% RH/open, 8 weeks) was 99.52 area %, the “HPLC Reults of initial (%)” value ([2]; 40° C./75% RH/open, 8 weeks) was 100.05% and the “Area (%) peak 1, RRT 0.88” value ([2]; 60° C., 2 weeks) was 0.20%. The “Area (%) peak 2, RRT 1.00 (main peak)” value ([2]; 60° C., 2 weeks) was 99.49%, the “Area (%) peak 3, RRT 1.14” value ([2]; 60° C., 2 weeks) was 0.11% and the “Area (%) peak 4, RRT 1.34” value ([2]; 60° C., 2 weeks) was 0.20%. For the same compound, the “Area (%) peak 1, RRT 0.88” value ([2]; 60° C., 4 weeks) was 0.22%, the “Area (%) peak 2, RRT 1.00 (main peak)” value ([2]; 60° C., 4 weeks) was 99.47% and the “Area (%) peak 3, RRT 1.14” value ([2]; 60° C., 4 weeks) was 0.11%. For the same compound, the “Area (%) peak 4, RRT 1.34” value ([2]; 60° C., 4 weeks) was 0.20%, the “Area (%) peak 1, RRT 0.88” value ([2]; 60° C., 8 weeks) was 0.20% and the “Area (%) peak 2, RRT 1.00 (main peak)” value ([2]; 60° C., 8 weeks) was 99.51%. The “Area (%) peak 3, RRT 1.14” value ([2]; 60° C., 8 weeks) was 0.10%, the “Area (%) peak 4, RRT 1.34” value ([2]; 60° C., 8 weeks) was 0.20% and the “HPLC Purity (area %), main peak RRT 1.00” value ([2]; 60° C./close, 2 weeks) was 99.49 area %. The “HPLC Purity (area %), main peak RRT 1.00” value ([2]; 60° C./close, 4 weeks) was 99.47 area %, the “HPLC Reults of initial (%)” value ([2]; 60° C./close, 4 weeks) was 100.00% and the “HPLC Purity (area %), main peak RRT 1.00” value ([2]; 60° C./close, 8 weeks) was 99.51 area %. For the same compound, the “HPLC Reults of initial (%)” value ([2]; 60° C./close, 8 weeks) was 100.04%, the “Area (%) peak 1, RRT 0.88” value ([2]; Initial) was 0.23% and the “Area (%) peak 2, RRT 1.00 (main peak)” value ([2]; Initial) was 99.47%. The “Area (%) peak 3, RRT 1.14” value ([2]; Initial) was 0.10%, the “Area (%) peak 4, RRT 1.34” value ([2]; Initial) was 0.20% and the “HPLC Purity (area %), main peak RRT 1.00” value ([2]; Initial) was 99.47 area %. For the same compound, the solubility at 2 h (physchem; FaSSIF-V2, 37 °C, fassif) was 280 µg/mL (≈ 637 µM), the solubility at 24 h (physchem; FaSSIF-V2, 37 °C, fassif) was 290 µg/mL (≈ 660 µM) and the solubility at 2 h (physchem; FeSSIF-V2, 37 °C, fessif) was 630 µg/mL (≈ 1430 µM). It also gave a solubility at 24 h (physchem; FeSSIF-V2, 37 °C, fessif) of 650 µg/mL (≈ 1480 µM), a solubility at 2 h (physchem; [4]) of 11 µg/mL (≈ 25 µM) and a solubility at 24 h (physchem; [4]) of 9.6 µg/mL (≈ 21.8 µM). The solubility at 2 h (physchem; [5]) was 0.3 µg/mL (≈ 0.683 µM), the solubility at 24 h (physchem; [5]) was 0.4 µg/mL (≈ 0.91 µM) and the solubility at 2 h (physchem; [6]) was 150 µg/mL. For the same compound, the solubility at 24 h (physchem; [6]) was 170 µg/mL, the solubility at 2 h (physchem; [7]) was 1900 µg/mL and the solubility at 24 h (physchem; [7]) was 1900 µg/mL. The solubility at 2 h (physchem; water, 37 °C) was 36 µg/mL (≈ 81.9 µM).
With `[2H]C([2H])(Cc1nc(-c2ccccc2)oc1C)Oc1ccc(C[C@H](OC)C(=O)O)c2sccc12` [AP-303 (818159-01-A)] the Solubility ([3]; 1,4-Dioxane) was “S > 46.0 mg/mL”, the Solubility ([3]; DMSO) was “S > 44.0 mg/mL” and the Solubility ([3]; H2O) was “S < 1.2 mg/mL”. The Solubility ([3]; THF) was “S > 42.0 mg/mL” and the Solubility ([3]; n-Heptane) was “S < 1.3 mg/mL”.
